Test results taken from ChEMBL document CHEMBL1208782, “Synthesis and pharmacological validation of a novel series of non-steroidal FXR agonists” (Bioorg Med Chem Lett, 2010).

Key:
[1] = target: T1, Bile acid receptor (Homo sapiens) (UniProt Q96RI1); assay: Agonist activity at human GST-fused FXR LBD assessed as cofactor peptide interaction with receptor ligand binding domain by FRET assay relative to GW-4064
T1 sequence (whole entry): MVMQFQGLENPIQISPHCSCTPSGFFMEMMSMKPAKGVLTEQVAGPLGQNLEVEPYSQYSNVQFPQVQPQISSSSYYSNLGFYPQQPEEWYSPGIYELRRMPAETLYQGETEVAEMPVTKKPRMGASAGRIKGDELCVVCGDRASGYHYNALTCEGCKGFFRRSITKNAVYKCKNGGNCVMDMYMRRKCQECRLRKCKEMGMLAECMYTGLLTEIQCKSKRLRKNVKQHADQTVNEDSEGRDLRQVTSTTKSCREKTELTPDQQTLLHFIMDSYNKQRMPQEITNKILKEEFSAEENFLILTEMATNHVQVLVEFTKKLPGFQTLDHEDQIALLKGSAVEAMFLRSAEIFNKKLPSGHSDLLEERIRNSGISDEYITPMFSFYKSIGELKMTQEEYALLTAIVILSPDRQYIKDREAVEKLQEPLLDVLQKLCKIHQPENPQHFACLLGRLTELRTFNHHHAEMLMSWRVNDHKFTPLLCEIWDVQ

Androgen receptor = target: T2, Androgen receptor (Homo sapiens, UniProt P10275); assay: Agonist activity at androgen receptor-LBD expressed in HEK293 cells assessed as Gal4-DBD interaction by cellular mammalian one hybrid assay; type: functional, cell-based
T2 sequence (P10275 whole entry): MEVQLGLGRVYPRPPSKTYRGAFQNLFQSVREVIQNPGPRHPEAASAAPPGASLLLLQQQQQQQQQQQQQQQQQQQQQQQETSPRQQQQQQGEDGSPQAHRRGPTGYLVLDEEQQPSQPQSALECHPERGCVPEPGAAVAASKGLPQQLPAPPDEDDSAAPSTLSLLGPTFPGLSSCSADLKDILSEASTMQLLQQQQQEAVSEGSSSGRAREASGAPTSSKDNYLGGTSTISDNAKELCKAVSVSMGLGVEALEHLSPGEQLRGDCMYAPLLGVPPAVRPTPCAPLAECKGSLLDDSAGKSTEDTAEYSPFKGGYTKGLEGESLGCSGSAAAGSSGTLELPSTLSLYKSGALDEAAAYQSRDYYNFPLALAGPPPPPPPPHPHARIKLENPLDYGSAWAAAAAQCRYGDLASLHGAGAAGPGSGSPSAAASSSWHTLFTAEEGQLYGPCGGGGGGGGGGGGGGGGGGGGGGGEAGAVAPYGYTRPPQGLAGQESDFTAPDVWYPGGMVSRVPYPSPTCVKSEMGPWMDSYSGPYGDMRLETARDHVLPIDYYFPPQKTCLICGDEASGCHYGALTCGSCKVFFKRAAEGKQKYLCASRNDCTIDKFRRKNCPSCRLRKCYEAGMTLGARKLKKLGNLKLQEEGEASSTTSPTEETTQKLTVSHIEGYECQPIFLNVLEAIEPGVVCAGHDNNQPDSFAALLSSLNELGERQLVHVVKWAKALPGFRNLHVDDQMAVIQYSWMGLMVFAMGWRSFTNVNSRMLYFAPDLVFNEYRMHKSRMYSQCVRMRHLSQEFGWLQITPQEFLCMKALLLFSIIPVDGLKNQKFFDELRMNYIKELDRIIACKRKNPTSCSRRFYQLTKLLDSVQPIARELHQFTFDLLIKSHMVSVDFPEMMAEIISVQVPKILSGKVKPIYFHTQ

[2] = target: T3, Peroxisome proliferator-activated receptor delta (Homo sapiens, UniProt Q03181); assay: Agonist activity at PPAR-beta/delta-LBD expressed in HEK293 cells assessed as Gal4-DBD interaction by cellular mammalian one hybrid assay; type: functional, cell-based
T3 sequence (Q03181 whole entry): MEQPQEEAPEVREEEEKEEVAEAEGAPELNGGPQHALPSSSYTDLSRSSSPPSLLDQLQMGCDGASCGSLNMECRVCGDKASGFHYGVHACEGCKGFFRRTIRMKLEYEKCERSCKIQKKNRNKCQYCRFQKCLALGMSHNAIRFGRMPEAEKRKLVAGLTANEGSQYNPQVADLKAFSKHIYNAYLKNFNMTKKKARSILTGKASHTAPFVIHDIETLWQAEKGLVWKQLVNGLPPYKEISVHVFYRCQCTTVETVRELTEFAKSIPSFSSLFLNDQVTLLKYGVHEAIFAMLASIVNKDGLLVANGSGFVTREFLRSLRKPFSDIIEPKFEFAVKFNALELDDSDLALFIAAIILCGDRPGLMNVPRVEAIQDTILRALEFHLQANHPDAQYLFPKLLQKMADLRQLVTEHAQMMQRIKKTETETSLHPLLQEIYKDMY

[3] = target: T4, Nuclear receptor subfamily 1 group I member 3 (Homo sapiens, UniProt Q14994); assay: Agonist activity at CAR-LBD expressed in HEK293 cells assessed as Gal4-DBD interaction by cellular mammalian one hybrid assay; type: functional, cell-based
T4 sequence (Q14994 whole entry): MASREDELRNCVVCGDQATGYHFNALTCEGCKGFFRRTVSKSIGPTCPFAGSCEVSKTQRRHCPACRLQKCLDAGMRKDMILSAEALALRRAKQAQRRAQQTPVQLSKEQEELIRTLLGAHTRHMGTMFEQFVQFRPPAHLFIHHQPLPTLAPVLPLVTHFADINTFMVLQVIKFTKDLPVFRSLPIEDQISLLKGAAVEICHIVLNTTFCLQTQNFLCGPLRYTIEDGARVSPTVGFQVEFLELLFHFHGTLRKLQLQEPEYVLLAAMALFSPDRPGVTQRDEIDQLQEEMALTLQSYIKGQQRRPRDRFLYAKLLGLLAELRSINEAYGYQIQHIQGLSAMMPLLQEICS

[4] = target: T5, Thyroid hormone receptor alpha (Homo sapiens, UniProt P10827); assay: Agonist activity at TRalpha-LBD expressed in HEK293 cells assessed as Gal4-DBD interaction by cellular mammalian one hybrid assay; type: functional, cell-based
T5 sequence (P10827 whole entry): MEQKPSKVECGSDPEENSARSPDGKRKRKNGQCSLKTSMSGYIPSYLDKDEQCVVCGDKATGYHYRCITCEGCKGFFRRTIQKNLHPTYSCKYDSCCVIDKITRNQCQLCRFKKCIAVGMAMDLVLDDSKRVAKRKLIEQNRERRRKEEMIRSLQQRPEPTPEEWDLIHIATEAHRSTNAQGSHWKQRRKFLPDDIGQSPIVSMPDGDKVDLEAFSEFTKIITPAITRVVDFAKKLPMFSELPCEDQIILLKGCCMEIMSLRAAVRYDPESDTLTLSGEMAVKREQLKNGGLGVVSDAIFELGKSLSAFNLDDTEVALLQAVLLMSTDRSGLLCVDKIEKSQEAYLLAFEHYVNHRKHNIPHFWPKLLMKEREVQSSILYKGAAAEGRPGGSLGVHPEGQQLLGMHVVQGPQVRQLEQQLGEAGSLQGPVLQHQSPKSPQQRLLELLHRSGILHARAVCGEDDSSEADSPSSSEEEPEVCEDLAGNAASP

Efficacy [1] [%] | EC50 (Androgen receptor) [µM] | EC50 [2] [µM] | EC50 [3] [µM] | EC50 [4] [µM] | SMILES
109 | > 10 | > 10 | > 10 | > 10 | CN(Cc1ccc(C(=O)O)cc1)c1ccc(OCc2c(-c3c(Cl)cccc3Cl)noc2C2CC2)nc1C(F)(F)F
97 | > 10 | > 10 | > 10 | > 10 | CC(C)c1onc(-c2c(Cl)cccc2Cl)c1COc1ccc(N(C)Cc2ccc(C(=O)O)cc2)c(C(F)(F)F)n1
102 | > 10 | > 10 | > 10 | > 10 | CN(Cc1cccc(C(=O)O)c1)c1ccc(OCc2c(-c3c(Cl)cccc3Cl)noc2C2CC2)nc1C(F)(F)F
